From patent US9295630B2, “Vitamin C complexes” (CENTRE NATIONAL DE LA RECHERCHE SCIENTIFIQUE, priority 2012, dated 2016)
Like-named read-outs stand apart in the source and are kept apart here.

Tests used:
Format in all cases: cell-based
acid GAGs = test: Expression of acid GAGs in human skin explants (alcian blue/PAS staining); details: topical, D10, relative to control No. 0
Procedure: (§1) Explants of human skin with a diameter of about […], obtained from surgical waste from cosmetic surgery and more particularly from abdominoplasty of women about thirty years of age, are used. The human skin is kept alive in a usual nutrient medium at 37° C. in humid atmosphere, enriched with 5% CO2, for ten days.
(§2) The explants of human skin are treated using a gel according to the invention comprising the VitC-SQ complex or conjugate according to the invention obtained in example 1a formulated in squalene as described in example 3 to obtain compositions comprising 1 wt % and 3 wt % respectively, expressed as weight of vitamin C active ingredient relative to the total weight of the composition. To obtain values of 1% and 3% respectively, expressed as weight of vitamin C, the concentration of the VitC-SQ complex is adjusted accordingly.
(§3) These two active ingredients are used at a concentration of 1 wt % and 3 wt %, expressed as weight of vitamin C active ingredient relative to the total weight of the composition.
(§4) Each of the compositions tested is applied topically, at a rate of 2 mg per explant, on the explants of human skin using a spatula on day zero (DO), then at 1 day (D1), at 3 days (D3), at 6 days (D6) and finally at 8 days (D8).
(§5) On the tenth day, the explants treated with each of the compositions are taken and are submitted to the same conditions as the explants of control No. 0.
(§6) Neutral GAGs, reservoirs of the growth factors near the dermal-epidermal junction, and acid GAGs, essentially hyaluronic acid, are examined on paraffin sections after staining with alcian blue/PAS (Mowry staining)

neutral GAGs = test: Expression of neutral GAGs in human skin explants (alcian blue/PAS staining); details: topical, D10, relative to control No. 0
Procedure: as §1, §2, §3, §4, §5, §6

explants of human skin = test: General morphology / acanthosis of human skin explants (Masson's trichrome staining); details: for dermal stimulation / epidermal stimulation: topical, D10, relative to control No. 0
Procedure: as §1, §2, §3, §4, §5
After 48 hours of fixation in ordinary Bouin, the samples are dehydrated and impregnated with paraffin using a Leica 1020 automatic dehydrator. Then they are made into a block according to procedure MO-H-153 using a Leica EG 1160 coating station.
5-μm sections are prepared using a Minot type microtome, Leica RM 2125, and are glued on superfrost silanized glass histology slides.
Microscopic observations are performed in light microscopy, using a Leica microscope of the Orthoplan type, with x 25 and x 40 objectives. The images are recorded with a Sony DXC 390P tri CCD camera and are stored using Leica IM1000 data archiving software.
Acanthosis of the skin, and more generally observation of the general morphology is carried out on sections in paraffin after staining with Masson's trichrome, Goldner's variant, according to procedure MO-H-157.

type I collagen = test: Expression of type I collagen in human skin explants (immunolabeling); details: gel at 3 wt % as vitamin C, topical, D10, relative to control No. 0
Procedure: (§7) For this assessment, only certain of the explants of human skin described above are used. More particularly, they are untreated explants (control No. 0) and explants treated with VitC-SQ according to the invention at 3 wt %, with free vitamin C at 3 wt % (control No. 1) and with VitC-palm at 3 wt % (control No. 2), expressed as weight of vitamin C active ingredient relative to the total weight of the composition.
(§8) The microscopic observations are carried out in light microscopy, using a Leica microscope, type DMLB, with x 40 objective. The images were recorded with an Olympus DP72 camera, using Olympus Cell^D acquisition and archiving software.
Type I collagen is labeled on frozen sections with a rabbit anti-human collagen I antibody (Monosan ref PS047, polyclonal), at 1/800th for 1 hour at room temperature with a biotin/streptavidin amplifier system, detected by fluorescence (FITC caltag SA 1001). The nuclei were counterstained with propidium iodide.

type III collagen = test: Expression of type III collagen in human skin explants (immunolabeling); details: gel at 3 wt % as vitamin C, topical, D10, relative to control No. 0
Procedure: as §7, §8
Regarding the labeling of type III collagen, the latter is labeled on sections in paraffin (fixation with formol) with a goat anti-human collagen III polyclonal antibody (SBA ref: 1330-01), at 1/50th overnight at room temperature using a Vectastain RTU Universal VECTOR avidin/biotin amplifier system, detected in diaminobenzidine (DAB) with the nuclei counterstained with Masson's hemalum.

[1] = tested on: CCD34SK human fibroblasts; test: Test of cellular viability (MTT assay); details: for IC50: 4 h incubation then 48 h, read-out: IC50 (loss of 50% in cellular viability)
Procedure: 10 000 cells of CCD34SK human fibroblasts per well were seeded in a 96-well plate.
The test products are added to the wells in different concentrations. After 4 h of incubation, the culture medium is replaced with new biological medium and the cells are incubated for 48h at 37° C. and 5% CO2.
Then, the culture medium is removed by inverting and 100 μL, of PBS/well with MTT at a concentration of 0.5 mg/ml is added. The plate is put back in the incubator for 2 h at 37° C. and 5% CO2. In order to dissolve the dark blue crystals of formazan that have formed, 100 μL of a solution of SDS (sodium dodecyl sulfate) is added to each well and then the plate is incubated again for 12 h at 37° C. and 5% CO2.
At the end of the 12 h, spectrophotometric measurements are carried out on an ELISA plate reader at a wavelength of 570 nm. The percentage viability of the cells in the presence of the test molecules is then calculated from the following formula: (mean OD of the treated cells—OD of control with medium only/mean OD of the control cells (100% viability)—OD of control with medium only)×100±standard deviation; or presented in the form of curves plotting the evolution of absorbance as a function of time.
The IC50 values (“inhibitory concentration 50%” or the concentration that inhibits growth of 50% of the cells) then correspond to a product concentration tested generating a loss of 50% in cellular viability (see Table below).

Structure (SMILES)	overexpression of epidermal acid GAGs (acid GAGs; gel at 1 wt % as vitamin C)	overexpression of epidermal acid GAGs (acid GAGs; gel at 3 wt % as vitamin C)	overexpression of neutral GAGs (neutral GAGs; gel at 1 wt % as vitamin C)	overexpression of neutral GAGs (neutral GAGs; gel at 3 wt % as vitamin C)	effect on skin explants (overall) (explants of human skin; dose less than or equal to 3 wt % as vitamin C)	dermal stimulation (explants of human skin; gel at 1 wt % as vitamin C)	epidermal stimulation (explants of human skin; gel at 1 wt % as vitamin C)	dermal stimulation (explants of human skin; gel at 3 wt % as vitamin C)	epidermal stimulation (explants of human skin; gel at 3 wt % as vitamin C)	expression of type I collagen (type I collagen)	expression of type III collagen (type III collagen)	toxicity relative to VitC-palm [1]	IC50 ([1]; Fibroblast)	dermal and epidermal stimulation compared with VitC-Palm (explants of human skin; at equivalent dose of vitamin C)	IC50 [1]
O=C1OC(C(O)CO)C(O)=C1O (centres unmarked) [Free vitamin C, 5-(1,2-dihydroxy-ethyl)-3,4-dihydroxy-5H-furan-2-one]	No overexpression of epidermal acid	No overexpression of epidermal acid	No overexpression of neutral GAGs	No overexpression of neutral GAGs	no effect	No dermal stimulation	No epidermal stimulation	Moderate dermal stimulation	No epidermal stimulation	No overexpression of type I collagen	No overexpression of type III collagen	–	–	–	–
CC(C)=CCCC(C)=CCCC(C)=CCCC=C(C)CCC=C(C)CCC(=O)OC[C@H](O)[C@H]1OC(=O)C(O)=C1O [VitC-SQ, 6-O-[4,8,13,17,21-pentamethyl-docosa-4,8,12,16,20-pentaenoyl] ascorbic acid]	No overexpression of the epidermal acid GAGs	No overexpression of epidermal acid	Slight overexpression of neutral GAGs	Definite overexpression of neutral GAGs	–	Moderate dermal stimulation	Slight epidermal stimulation	Fairly definite dermal stimulation	Definite epidermal stimulation	Slight underexpression of type I collagen	Slight overexpression of type III collagen	half as toxic as VitC-palm	600 µM	greater than VitC-Palm	–
CCCCCCCCCCCCCCCC(=O)OC[C@H](O)[C@H]1OC(=O)C(O)=C1O [VitC-palm, 6-ascorbyl palmitate]	No overexpression of epidermal acid	No overexpression of epidermal acid	Slight overexpression of neutral GAGs	Very moderate overexpression of neutral	–	No dermal stimulation	No epidermal stimulation	Moderate dermal stimulation	No epidermal stimulation	No overexpression of type I collagen	Very slight overexpression of type III	–	–	–	250 µM
